Values after ≈ are worked out from the molar mass of the structure shown.
How the values were obtained:
[1] = Cytotoxicity against human HCT 116 cells by MTT assay; assay type: functional, cell-based
[2] = tested on: HT-29; assay: Cytotoxicity against human HT-29 cells by MTT assay; assay type: functional, cell-based

Row | Structure (SMILES) | IC50 [1] | IC50 [2]
1 | CC(C)=CC(=O)O[C@H]1CC(C)(C)C[C@H]2C3=CC[C@@H]4[C@@]5(C)CC[C@H](O[C@@H]6O[C@H](C(=O)O)[C@@H](O[C@H]7O[C@H](C)[C@@H](O)[C@H](O)[C@@H]7O)[C@H](O)[C@H]6O[C@@H]6O[C@H](CO)[C@@H](O)[C@H](O)[C@H]6O)C(C)(C)[C@@H]5CC[C@@]4(C)[C@]3(C)[C@@H](O)[C@@H](O)[C@@]12CO | 40 µg/mL (≈ 37.8 µM) | 40 µg/mL (≈ 37.8 µM)
2 | C/C=C(/C)C(=O)O[C@H]1[C@H](O)C(C)(C)C[C@H]2C3=CC[C@@H]4[C@@]5(C)CC[C@H](O[C@@H]6O[C@H](C(=O)O)[C@@H](O[C@@H]7O[C@@H](C)[C@H](O)[C@@H](O)[C@H]7O)[C@H](O)[C@H]6O[C@H]6O[C@@H](CO)[C@H](O)[C@@H](O)[C@@H]6O)C(C)(C)[C@@H]5CC[C@@]4(C)[C@]3(C)[C@@H](O)[C@@H](O)[C@]21CO | > 100 µg/mL | > 100 µg/mL
3 | CC(C)=CC(=O)O[C@H]1CC(C)(C)C[C@H]2C3=CC[C@@H]4[C@@]5(C)CC[C@H](O[C@@H]6O[C@H](C(=O)O)[C@@H](O)[C@H](O)[C@H]6O[C@H]6O[C@H](C)[C@@H](O)[C@H](O)[C@@H]6O)C(C)(C)[C@@H]5CC[C@@]4(C)[C@]3(C)[C@@H](O)[C@@H](O)[C@@]12CO | 40 µg/mL (≈ 44.7 µM) | 40 µg/mL (≈ 44.7 µM)
4 | C/C=C(/C)C(=O)O[C@H]1[C@H](O)C(C)(C)C[C@H]2C3=CC[C@@H]4[C@@]5(C)CC[C@H](O[C@@H]6O[C@H](C(=O)O)[C@@H](O)[C@H](O)[C@H]6O[C@H]6O[C@H](C)[C@@H](O)[C@H](O)[C@@H]6O)C(C)(C)[C@@H]5CC[C@@]4(C)[C@]3(C)[C@@H](O)[C@@H](O)[C@]21COC(C)=O | > 100 µg/mL | > 100 µg/mL
5 | C/C=C(/C)C(=O)O[C@H]1[C@H](OC(C)=O)C(C)(C)C[C@H]2C3=CC[C@@H]4[C@@]5(C)CC[C@H](O[C@@H]6O[C@H](C(=O)O)[C@@H](O)[C@H](O)[C@H]6O[C@H]6O[C@H](C)[C@@H](O)[C@H](O)[C@@H]6O)C(C)(C)[C@@H]5CC[C@@]4(C)[C@]3(C)[C@@H](O)[C@@H](O)[C@]21CO | 40 µg/mL (≈ 42 µM) | 40 µg/mL (≈ 42 µM)
6 | CC(=O)OC1[C@H](OC(=O)C=C(C)C)[C@]2(CO)[C@H](O)[C@H](O)[C@]3(C)C(=CC[C@@H]4[C@@]5(C)CC[C@H](O[C@@H]6O[C@H](C(=O)O)[C@@H](O)[C@H](O)[C@H]6O[C@H]6O[C@H](C)[C@@H](O)[C@H](O)[C@@H]6O)C(C)(C)[C@@H]5CC[C@]43C)[C@@H]2CC1(C)C (stereo not given in full) | 40 µg/mL (≈ 42 µM) | 40 µg/mL (≈ 42 µM)
7 | C/C=C(/C)C(=O)O[C@H]1[C@H](O)C(C)(C)C[C@H]2C3=CC[C@@H]4[C@@]5(C)CC[C@H](O[C@@H]6O[C@H](C(=O)O)[C@@H](O)[C@H](O)[C@H]6O[C@H]6O[C@H](C)[C@@H](O)[C@H](O)[C@@H]6O)C(C)(C)[C@@H]5CC[C@@]4(C)[C@]3(C)[C@@H](O)[C@@H](O)[C@]21CO | 40 µg/mL (≈ 43.9 µM) | 40 µg/mL (≈ 43.9 µM)
8 | CC(=O)O[C@H]1C(=O)[C@@]2(C)[C@H]([C@H](OC(=O)c3ccccc3)[C@]3(O)C[C@H](OC(=O)[C@H](O)[C@@H](NC(=O)c4ccccc4)c4ccccc4)C(C)=C1C3(C)C)[C@]1(OC(C)=O)CO[C@@H]1C[C@@H]2O [PACLITAXEL] | 0.008 µg/mL (≈ 0.00937 µM) | 

— ChEMBL document CHEMBL1158028, “Triterpene saponins from Eryngium campestre” (J Nat Prod, 2006)
